Data: ChEMBL document CHEMBL1158024, “Terpenoids of Syzygium formosanum” (J Nat Prod, 1999)

Experiment: Inhibition of moloney murine leukemia virus reverse transcriptase

Compound: C=C(C)[C@@H]1CC[C@]2(C(=O)O)CC[C@]3(C)[C@H](CC[C@@H]4[C@@]5(C)CC[C@H](O)C(C)(C)[C@@H]5CC[C@]43C)[C@@H]12 [BETULINIC ACID]
- EC50: 1400 nM
